Measurements from patent US10111437B2, “Substituted guanidines as fungicides” (Nippon Soda Co., Ltd., priority 2015, dated 2018).
Counter-ions that a name gives are not always drawn.

Tests used:
[1] = tested on: Tomato late blight fungus (Phytophthora infestans); experiment: whole plant or invertebrate; assay type: in vivo; settings: foliar, 96 h, read-out: control value
[2] = tested on: Apple scab fungus (Venturia inaequalis); experiment: Apple scab control test (foliar spray on apple seedlings); assay type: in vivo; settings: 125 ppm active ingredient, sprayed on apple seedlings (variety Orin) before inoculation, vs untreated
Experimental: The dilution was sprayed to apple seedlings (variety “Orin”, 3 to 4 leaf stage) grown in clay pots. […] The control value was calculated by the following equation. [formula]

[3] = tested on: wheat leaf rust fungus (Puccinia recondita); experiment: Wheat leaf rust control test (foliar spray on wheat seedlings); assay type: in vivo; settings: 240 h, 125 ppm active ingredient, sprayed on wheat seedlings (variety Norin 61) before inoculation, 10 days, vs untreated
[4] = tested on: cucumber gray mold fungus (Botrytis cinerea); experiment: Cucumber gray mold control test (foliar spray on cucumber seedlings); settings: in Cucumis sativus, 96 h, read-out: control value

Row | SMILES | melting point [°C] | pest or weed control at 125 ppm [1] [%] | pest or weed control at 125 ppm [2] [%] | pest or weed control at 125 ppm [3] [%] | pest or weed control at 125 ppm [4] [%]
1 | N=C(N)c1ccc(OCCCCn2ccn(CCCCOc3ccc(C(=N)N)cc3)c2=N)cc1 (as salt: hydrochloride) [compound 36, 4-[4-[3-[4-(4-carbamimidoylphenoxy)butyl]-2-imino-imidazol-1-yl]butoxy]benzamidine] | 178 to 180 | – | – | – | –
2 | N=C(NCCCc1cc2cc(C(=N)N)ccc2o1)NCCCc1cc2cc(C(=N)N)ccc2o1 (as salt: hydrochloride) [compound 80] | 174 to 182 | – | – | – | –
3 | N=C(NCCCOc1ccc(C(=N)N)c(F)c1)NCCCOc1ccc(C(=N)N)c(F)c1 (as salt: hydrochloride) [compound 82] | 181 to 185 | – | – | – | –
4 | Cc1cc(C(=N)N)ccc1OCCCCNC(=N)NCCCCOc1ccc(C(=N)N)cc1C (as salt: hydrochloride) [compound 84] | 171 to 180 | – | – | – | –
5 | N=C(N)c1ccc(OCCCCCn2ccn(CCOc3ccc(C(=N)N)cc3)c2=N)cc1 (as salt: hydrochloride) [compound 93] | 183 to 187 | – | – | – | –
6 | N=C(N)c1ccc(OCCCn2ccn(CCCOc3ccc(C(=N)N)cc3Cl)c2=N)c(Cl)c1 (as salt: hydrochloride) [compound 99] | 184 to 190 | – | – | – | –
7 | N=C(N)c1ccc(OCCCn2ccn(CCCOc3ccc(C(=N)N)c(F)c3)c2=N)cc1F (as salt: hydrochloride) [compound 103] | 183 to 187 | – | – | – | –
8 | Cc1c(C)n(CCCOc2ccc(C(=N)N)cc2)c(=N)n1CCCOc1ccc(C(=N)N)cc1 (as salt: hydrochloride) [compound 109] | 188 to 199 | – | – | – | –
9 | Cc1cn(CCCOc2ccc(C(=N)N)cc2)c(=N)n1CCCOc1ccc(C(=N)N)cc1 (as salt: hydrochloride) [compound 114] | 182 to 186 | – | – | – | –
10 | N=C(N)c1ccc(OCCCn2ccn(CCCc3cc4cc(C(=N)N)ccc4o3)c2=N)cc1 (as salt: hydrochloride) [compound 126] | 227 to 236 | – | – | – | –
11 | N=C(NCC/C=C/c1ccc(C(=N)N)cc1)NCC/C=C/c1ccc(C(=N)N)cc1 (as salt: hydrochloride) [compound 151] | 179 to 181 | – | – | – | –
12 | N=C(NCC#Cc1ccc(C(=N)N)cc1)NCC#Cc1ccc(C(=N)N)cc1 (as salt: hydrochloride) [compound 155] | 220 | – | – | – | –
13 | N=C(N)c1ccc(OCCCn2ccn(CCCSc3ccc(C(=N)N)cc3)c2=N)cc1 (as salt: hydrochloride) [compound 173] | 168 to 171 | – | – | – | –
14 | N=C(N)c1ccc(SCCCn2ccn(CCCSc3ccc(C(=N)N)cc3)c2=N)cc1 (as salt: hydrochloride) [compound 181] | 169 to 172 | – | – | – | –
15 | N=C(NCCOCc1ccc(C(=N)N)cc1)NCCOCc1ccc(C(=N)N)cc1 (as salt: hydrochloride) [compound 226] | 262 to 267 | – | – | – | –
16 | N=C(NCCCOCc1ccc(C(=N)N)cc1)NCCCOc1ccc(C(=N)N)cc1 (as salt: trifluoroacetate) [compound 143] | 192 to 197 | – | – | – | –
17 | N=C(N)NCCCCCCCCn1ccn(CCCOc2ccc(C3=NCCCN3)cc2)c1=N [compound 184] | – | ≥ 75 | ≥ 75 | ≥ 75 | ≥ 75
18 | N=C(N)NCCCCCCCNC(=N)NCCCCCOc1ccc(C(=N)N)cc1 [compound 186] | – | ≥ 75 | ≥ 75 | ≥ 75 | ≥ 75
19 | N=C(N)NCCCCCCCCNC(=N)NCCCCOc1ccc(C(=N)N)cc1 [compound 188] | – | ≥ 75 | ≥ 75 | ≥ 75 | ≥ 75
20 | N=C(N)NCCCCCCCCNC(=N)NCCCOc1ccc(C2=NCCCN2)cc1 [compound 192] | – | ≥ 75 | ≥ 75 | ≥ 75 | ≥ 75
21 | N=C(NCCCCOc1ccc(C(=N)N)cc1)NCCCCOc1ccc(C(=N)N)cn1 [compound 194] | – | ≥ 75 | ≥ 75 | ≥ 75 | ≥ 75
22 | N=C(N)NCCCCCCCCNC(=N)NCCOCc1ccc(C(=N)N)cc1 [compound 200] | – | ≥ 75 | ≥ 75 | ≥ 75 | ≥ 75

Row | SMILES | melting point [°C] | pest or weed control at 125 ppm [1] [%] | pest or weed control at 125 ppm [2] [%] | pest or weed control at 125 ppm [3] [%] | pest or weed control at 125 ppm [4] [%]
23 | N=C(N)NCCCCCCCn1ccn(CCCOc2ccc(C3=NCCCN3)cc2)c1=N [compound 206] | – | ≥ 75 | ≥ 75 | ≥ 75 | ≥ 75
24 | N=C(N)NCCCCCCCCNC(=N)NCCOCc1ccc(C2=NCCCN2)cc1 [compound 220] | – | ≥ 75 | ≥ 75 | ≥ 75 | ≥ 75
25 | N=C(N)NCCCCCCCCNC(=N)NCCCOCc1ccc(C2=NCCCN2)cc1 [compound 222] | – | ≥ 75 | ≥ 75 | ≥ 75 | ≥ 75
26 | N=C(N)NCCCCCCCNC(=N)NCCOCc1ccc(C(=N)N)cc1 [compound 228] | – | ≥ 75 | ≥ 75 | ≥ 75 | ≥ 75
27 | N=C(N)NCCCCCCCCNC(=N)NCCCOc1ccc(C(=N)N)cc1 [compound 230] | – | ≥ 75 | ≥ 75 | ≥ 75 | ≥ 75
28 | N=C(N)NCCCCCCCCCNC(=N)NCCOc1ccc(C(=N)N)cc1 [compound 234] | – | ≥ 75 | ≥ 75 | ≥ 75 | ≥ 75
29 | N=C(N)NCCCCCCCCNC(=N)NCCOc1ccc(C2=NCCCN2)cc1 [compound 240] | – | ≥ 75 | ≥ 75 | ≥ 75 | ≥ 75
30 | N=C(N)NCCCCCCCCCNC(=N)NCCOc1ccc(C2=NCCCN2)cc1 [compound 242] | – | ≥ 75 | ≥ 75 | ≥ 75 | ≥ 75
31 | N=C(N)NCCCCCCCCNC(=N)NCCCCOc1ccc(C2=NCCN2)cc1 [compound 246] | – | ≥ 75 | ≥ 75 | ≥ 75 | ≥ 75
32 | N=C(N)NCCCCCCCCNC(=N)NCCCCOc1ccc(C2=NCCCCN2)cc1 [compound 254] | – | ≥ 75 | ≥ 75 | ≥ 75 | ≥ 75
33 | CC1(C)CNC(c2ccc(OCCCCNC(=N)NCCCCCCCCNC(=N)N)cc2)=N1 [compound 256] | – | ≥ 75 | ≥ 75 | ≥ 75 | ≥ 75
34 | N=C(N)NCCCCCCCCNC(=N)N1CCC(Oc2ccc(C3=NCCCN3)cc2)CC1 [compound 264] | – | ≥ 75 | ≥ 75 | ≥ 75 | ≥ 75
35 | N=C(N)NCCCCCCCCNC(=N)NCCc1ccc(C2=NCCCN2)cc1 [compound 266] | – | ≥ 75 | ≥ 75 | ≥ 75 | ≥ 75
36 | N=C(N)NCCCCCCCCNC(=N)NCCCc1ccc(C2=NCCCN2)cn1 [compound 273] | – | ≥ 75 | ≥ 75 | ≥ 75 | ≥ 75
37 | N=C(N)NCCCCCCCCNC(=N)NCCCCOc1ccc(C2=NCCCN2)cn1 [compound 275] | – | ≥ 75 | ≥ 75 | ≥ 75 | ≥ 75
38 | N=C(N)NCCCCCCCNC(=N)NCCCCOc1ccc(C2=NCC(N)CN2)cc1 (centres unmarked) [compound 277] | – | ≥ 75 | ≥ 75 | ≥ 75 | ≥ 75
39 | N=C(N)NCCCCCCCCNC(=N)NCCCCOc1ccc(C2=NCC(N)CN2)cc1 (centres unmarked) [compound 279] | – | ≥ 75 | ≥ 75 | ≥ 75 | ≥ 75
40 | N=C(N)NCCCCCCCCNC(=N)NCCOc1ccc(C2=NCC(N)CN2)cc1 (centres unmarked) [compound 285] | – | ≥ 75 | ≥ 75 | ≥ 75 | ≥ 75
41 | N=C(N)NCCCCCCCCNC(=N)NCCOc1ccc(C2=NCCCN2)nc1 [compound 288] | – | ≥ 75 | ≥ 75 | ≥ 75 | ≥ 75
42 | N=C(NCCCCCCCCNC1=NCCN1)NCCCOc1ccc(C(=N)N)cc1 [compound 298] | – | ≥ 75 | ≥ 75 | ≥ 75 | ≥ 75
43 | CN1CCCN=C1c1ccc(OCCNC(=N)NCCCCCCCCNC(=N)N)cc1 [compound 300] | – | ≥ 75 | ≥ 75 | ≥ 75 | ≥ 75
44 | N=C(N)NCCCCCCCCn1ccn(CCOc2ccc(C3=NCC(N)CN3)cc2)c1=N (centres unmarked) [compound 302] | – | ≥ 75 | ≥ 75 | ≥ 75 | ≥ 75
